# Assays:
# Test in all cases: relative viability (nuclei count vs DMSO), 5 days (fraction); higher = more cells survive
# PAC-1 + Luminespib = compound: C=CCc1cccc(/C=N/NC(=O)CN2CCN(Cc3ccccc3)CC2)c1O [PAC-1] + CCNC(=O)c1noc(-c2cc(C(C)C)c(O)cc2O)c1-c1ccc(CN2CCOCC2)cc1 [Luminespib] (partner 0.01 µM)
# Outline: (§1)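 Relative viability is defined as nuclei in treated wells over nuclei in vehicle wells. Duplicate plates were run and medians reported. Lung cancer cell lines in 1536-well plates were dosed by pin tool one day after seeding, with one drug or with a fixed anchor-drug dose plus five library-drug doses (not always all listed) in √10 steps, and nuclei were counted after 5 days.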
# BMX-IN-1 + Trametinib = compound: C=CC(=O)Nc1cc(-n2c(=O)ccc3cnc4ccc(-c5ccc(NS(C)(=O)=O)cc5)cc4c32)ccc1C [BMX-IN-1] + CC(=O)Nc1cccc(-n2c(=O)n(C3CC3)c(=O)c3c(Nc4ccc(I)cc4F)n(C)c(=O)c(C)c32)c1 [Trametinib] (partner 0.02 µM)
# Outline: as §1
# BMX-IN-1 + Pictilisib = compound: C=CC(=O)Nc1cc(-n2c(=O)ccc3cnc4ccc(-c5ccc(NS(C)(=O)=O)cc5)cc4c32)ccc1C [BMX-IN-1] + CS(=O)(=O)N1CCN(Cc2cc3nc(-c4cccc5[nH]ncc45)nc(N4CCOCC4)c3s2)CC1 [Pictilisib] (partner 1 µM)
# Outline: as §1
# Ibrutinib + Lapatinib = compound: C=CC(=O)N1CCC[C@@H](n2nc(-c3ccc(Oc4ccccc4)cc3)c3c(N)ncnc32)C1 [Ibrutinib] + CS(=O)(=O)CCNCc1ccc(-c2ccc3ncnc(Nc4ccc(OCc5cccc(F)c5)c(Cl)c4)c3c2)o1 [Lapatinib] (partner 2 µM)
# Outline: as §1
Cell Line,relative viability (PAC-1 + Luminespib; first compound 0.02 µM),relative viability (PAC-1 + Luminespib; first compound 0.06325 µM),relative viability (PAC-1 + Luminespib; first compound 0.2 µM),relative viability (PAC-1 + Luminespib; first compound 2 µM),relative viability (BMX-IN-1 + Trametinib; first compound 0.02 µM),relative viability (BMX-IN-1 + Trametinib; first compound 0.2 µM),relative viability (BMX-IN-1 + Trametinib; first compound 0.6325 µM),relative viability (BMX-IN-1 + Trametinib; first compound 2 µM),relative viability (BMX-IN-1 + Pictilisib; first compound 0.02 µM),relative viability (BMX-IN-1 + Pictilisib; first compound 0.2 µM),relative viability (BMX-IN-1 + Pictilisib; first compound 0.6325 µM),relative viability (BMX-IN-1 + Pictilisib; first compound 2 µM),relative viability (Ibrutinib + Lapatinib; first compound 0.005 µM),relative viability (Ibrutinib + Lapatinib; first compound 0.01581 µM),relative viability (Ibrutinib + Lapatinib; first compound 0.05 µM),relative viability (Ibrutinib + Lapatinib; first compound 0.1581 µM),relative viability (Ibrutinib + Lapatinib; first compound 0.5 µM)
201T,1.03,1.05,1.09,1.04,0.703,0.733,0.744,0.694,0.752,0.72,0.71,0.695,1.04,0.983,1.08,0.968,1.02
A549,–,–,–,–,–,–,–,–,0.69,0.757,0.56,0.517,0.931,0.916,1.05,1.08,1.02
A-427,1.13,0.769,0.988,0.951,0.691,0.727,0.79,0.722,0.796,0.83,0.948,0.78,1.01,1.01,1.06,0.982,1.01
ABC-1,0.526,0.803,0.682,0.519,–,–,–,–,0.802,0.75,0.847,0.394,1.14,1.19,1.29,1.19,1.26
BEN,0.594,0.282,0.535,0.273,1.15,0.909,0.96,1.03,0.643,0.741,0.513,0.596,–,0.791,0.519,0.526,0.551
CAL-12T,0.268,0.517,0.381,0.247,0.342,0.318,0.31,0.36,0.527,0.425,0.47,0.422,0.615,0.67,0.711,0.647,0.683
COR-L23,0.569,0.71,0.629,0.625,0.71,0.695,0.623,0.662,1.1,1.3,0.76,0.855,1.24,0.948,–,0.964,0.982
COR-L 105,0.769,0.788,0.627,0.725,0.427,0.444,0.422,0.403,0.383,0.4,0.481,0.4,0.36,0.402,0.368,0.314,0.337
Calu-6,–,–,–,–,–,–,–,–,1.14,1.21,1.09,0.866,1.07,1.04,0.98,1.13,–
ChaGo-K-1,0.645,0.737,0.645,0.715,0.735,0.986,0.891,0.91,0.66,0.64,0.858,0.614,–,–,–,–,–
EBC-1,–,–,–,–,–,–,–,–,0.249,0.303,0.382,0.255,0.199,0.197,0.219,0.186,0.238
EKVX,0.917,0.855,0.815,0.837,0.308,0.39,0.375,0.369,0.522,0.439,0.442,0.404,0.178,0.215,0.216,0.191,0.179
EMC-BAC-2,1.19,1.17,1.18,1.15,0.827,0.906,0.96,1.04,0.556,0.562,0.621,0.506,0.827,0.864,0.858,0.909,0.899
EPLC-272H,0.296,0.262,0.202,0.277,0.27,0.257,0.311,0.318,0.35,0.31,0.304,0.377,–,1.05,0.877,0.68,0.704
H3255,0.905,0.852,0.672,0.804,0.725,0.624,0.599,0.672,0.437,0.461,0.592,0.488,0.26,0.28,0.248,0.182,0.218
HARA,0.554,0.674,0.793,0.937,0.907,0.449,0.492,0.654,0.4,0.284,0.482,0.397,0.836,0.638,0.727,0.777,0.796
HCC-15,0.447,0.37,0.355,0.279,0.268,0.411,0.388,0.396,0.721,0.818,0.798,0.844,1.01,0.819,0.877,0.835,0.865
HCC-44,1.04,1.14,1.01,0.964,1.11,1.08,1.14,1.03,0.732,0.687,0.836,0.622,1.09,0.948,1.02,1.08,1.02
HCC-78,–,–,–,–,0.801,0.967,0.717,0.896,0.214,0.18,0.242,0.249,1.27,0.812,0.57,0.398,0.399
HCC-366,–,–,–,–,0.36,0.352,0.376,0.361,0.124,0.666,0.137,0.16,1.07,0.978,1.02,0.959,1.19
HCC-827,0.634,0.465,0.649,0.609,0.558,0.537,0.475,0.518,1.03,1.15,1.04,1.05,0.169,0.206,0.208,0.174,0.173

# Source: the supplement of paper PMC10307832
